In patent publication US20240350430A1, “GROWTH INHIBITOR OF METASTATIC HUMAN PROSTATE CANCER CELLS” (Watanabe Oyster Laboratory Co., Ltd., priority 2021, published 2024):

Experiments:
Type in all cases: cell-based, human
PC-3 cells = experiment: Cell growth of PC-3 cells (cell counting)
Method: (§1) The PC-3 and DU-145 cells (the cell number of 1×10^5/in 1 ml of a culture fluid per hole using a 24-hole plate) were cultured in a DMEM culture fluid (containing 10% of FBS, 1% of P/S, and 1% of fungizone) containing the DHMBA (1 and 10 μM) under 5% of CO2, at 37° C., for one, two, three, four, and six days. […] After the culture, 0.1 ml of 0.05% trypsin-EDTA solution obtained by dissolving the cells adhering to the bottom surface of the culture dish in PBS (Thermo Fisher Scientific, Waltham, MA, USA) not containing Ca^2+/Mg^2+ was added, incubation was performed at 37° C. for two minutes to release the adhering cells, and 0.9 ml of the DMEM culture fluid containing 10% of FBS and 1% of P/S was added to stop the reaction. The cell number in the cell suspension was counted by the method described in the item of “Measurement of Cell Number.”
(§2) After the culture of the cells, 0.1 ml of 0.05% trypsin-EDTA solution obtained by dissolving the cells adhering to the bottom surface of the culture dish in PBS (Thermo Fisher Scientific, Waltham, MA, USA) not containing Ca^2+/Mg^2+ was added, incubation was performed at 37° C. for two minutes to release the adhering cells, and 0.9 ml of the DMEM culture fluid containing 10% of FBS and 1% of P/S was added to stop the reaction. The visible cells were counted by the Olympus MTV-3 microscope using a hemocytometer (Sigma-Aldrich).
FIG. 1(C) is a diagram in which the PC-3 cells (1×10^5 cells/per well of a 24-well plate) were cultured under 5% of CO2, at 37° C., for one to six days in a DMEM culture fluid (containing 10% of FBS, 1% of P/S, and 1% of fungizone) containing the DHMBA (10 μM).
(§3) In FIGS. 1(D) and 1(E), the PC-3 cells (1×10^5 cells/per well of a 24-well plate) were cultured under 5% of CO2, at 37° C., for three (FIG. 1D) and six (FIG. 1E) days in a DMEM culture fluid (containing 10% of FBS, 1% of P/S, and 1% of fungizone) containing the DHMBA (0.01, 0.1, 1, 10, 100, and 1000 μM). After the culture, the cells adhered to the bottom surface of the dish were removed and counted. […] 1-way ANOVA, Tukey-Kramer post-test.
FIGS. 3(A) and 3(B) are diagrams in which the PC-3 cells (1×10^5 cells/ml/per well of a 24-well plate) were cultured under 5% of CO2, at 37° C., for three days in a DMEM culture fluid (containing 10% of FBS, 1% of P/S, and 1% of fungizone) containing the DHMBA (10 μM) containing cell cycle inhibitors, roscovitine (10 and 100 nM), butyrate (10 and 100 μM), and sulforaphane (1 and 10 nM).
After the culture, the cells adhered to the dish were removed and counted. […] 1-way ANOVA, Tukey-Kramer post-test.
In the drawing, the PC-3 cells (1×10^5/in 1 ml of a culture fluid per hole using a 24-hole plate) were cultured under 5% of CO2, at 37° C., for three days in a DMEM culture fluid (containing 10% of FBS, 1% of P/S, and 1% of fungizone) in the presence of the DHMBA (10 μM) and an aryl hydrocarbon receptor inhibitor CH223191 (1, 10, or 25 μM) to examine the action on cell growth.

DU-145 cells [1] = experiment: Cell migration scratch assay, DU-145 cells; settings: DHMBA 1, 10, 100, or 1000 μM, 48 hours
Method: The migration of the prostate cancer PC-3 and DU-145 cells was examined using a scratch assay. The PC-3 and DU-145 cells (the cell number of 2×10^5/in 1 ml of a culture fluid per hole using a 24-hole plate) were cultured in a DMEM culture fluid containing 10% of FBS, 1% of P/S, and 1% of fungizone under 5% of CO2, at 37° C., for 48 hours, and a straight line scratch was performed using a pipette tip (200 μl) when the cells reached confluence. Free cells were washed with PBS to be removed, the above-described culture fluid (containing 0.1, 1, 10, 100, or 1000 μM of the DHMBA) was added, and the cells were cultured for 48 hours. After the culture, intervals of cell-free parts were measured.
The PC-3 and DU-145 cells (the cell number of 2× 10^5/1 ml of a culture fluid per hole using a 24-hole plate) were cultured under 5% of CO2, at 37° C., for 48 hours in a DMEM culture fluid containing 10% of FBS, 1% of P/S, and 1% of fungizone, and a straight line scratch was performed using a pipette tip (200 μl) when the cells reached confluence. Free cells were washed with PBS to be removed, the above-described culture fluid (containing 0.1, 1, 10, 100, or 1000 μM of the DHMBA) was added, and the cells were cultured for 48 hours. After the culture, intervals of cell-free parts were measured. […]

DU-145 cells [2] = experiment: Cell growth of DU-145 cells (cell counting); settings: DHMBA 10 μM, one to six days
Method: as §1, §2
FIG. 2(C) is a diagram in which the DU-145 cells (1×10^5 cells/per well of a 24-well plate) were cultured under 5% of CO2, at 37° C., for one to six days in a DMEM culture fluid (containing 10% of FBS, 1% of P/S, and 1% of fungizone) containing the DHMBA (10 μM).
as §3, with “2(D)” for “1(D)”, “2(E),” for “1(E),”, “DU-145” for “PC-3”, “2D)” for “1D)”, “2E)” for “1E)”, “the” for “the bottom surface of the”

## COc1c(O)cc(CO)cc1O [DHMBA, 3,5-dihydroxy-4-methoxybenzyl alcohol]
PC-3 cells; DHMBA 0.01 μM
  effect on cell growth at low concentration: significant effect
PC-3 cells; DHMBA 10 μM with CH223191 1, 10, or 25 μM, three days
  cell growth inhibitory effect of DHMBA in the presence of CH223191: found not to be expressed
PC-3 cells; DHMBA 10 μM with roscovitine, butyrate or sulforaphane, three days
  cell growth inhibitory effect of DHMBA in the presence of cell cycle inhibitors: not observed
PC-3 cells; DHMBA 10 μM with wortmannin, PD98059 or staurosporine, three days
  cell growth inhibitory effect of DHMBA in the presence of signaling inhibitors: no significant cell growth inhibitory effect
PC-3 cells; DHMBA 10 μM, one to six days
  cell growth: inhibited
DU-145 cells [1]
  migration: significantly inhibited
DU-145 cells [2]
  cell growth: inhibited
